Experiment: Safety and tolerability: adverse events, dose-limiting toxicities, MTD, RP2D (Phase 1A/1B)
Type: in vivo
Method: This was an open-label, Phase 1, dose-escalation/dose-expansion study, conducted across six study centres in Australia. The dose-escalation phase evaluated twice-daily (BID) and once-daily (QD) dosing, and the dose-expansion phase evaluated the BID RP2D from the dose-escalation phase and food effects (Fig. 1). The food-effects cohort comprised two sequences: fast followed by fed (sequence 1) and fed followed by fast (sequence 2). […] The decision to proceed to the next dose cohort was determined by the Safety Monitoring Committee and followed a modified 3 + 3 escalation scheme. […] When ≥2 DLTs occurred in the first 23 days of a dose level, the next lower dose level was declared the MTD. Safety was monitored and DLTs were assessed in all dose cohorts. […] The food-effects cohort investigated the effects of food on the PK of pamiparib in patients with advanced solid tumours.
The QD dosing regimen was added as an amendment to the protocol with the purpose of exploring the feasibility of a more convenient regimen.
Safety and tolerability were assessed throughout the study by monitoring adverse events (AEs), serious AEs, clinical laboratory measurements and physical examinations. Adverse events were categorised according to their severity (National Cancer Institute Common Terminology Criteria for Adverse Events v4.03) and relationship to the study treatment.

[1] = 101 total patients, dose escalation and expansion
[2] = BID dose-escalation (2.5–120 mg), 45 patients
[3] = BID dose-escalation, 45 patients
[4] = Dose Escalation and Dose Expansion (N=101)
[5] = Total BID dose escalation (N = 45)
[6] = Total QD dose escalation (N=19)

C[C@]12CCCN1CC1=NNC(=O)c3cc(F)cc4[nH]c2c1c34 [pamiparib]
Serious AE: nausea (101 patients): 4.0% | Serious AE: pleural effusion (101 patients): 3.0% | Serious AE: pneumonia (101 patients): 3.0% | Serious AE: small intestinal obstruction (101 patients): 5.0% | Serious AEs (101 patients (44 patients)): 43.6% | Anaemia leading to dose reduction/interruption (101 total patients): 21.8% | Haematologic AEs leading to dose reduction/interruption (101 total patients): 23.8% | Neutropenia leading to dose reduction/interruption (101 total patients): 5.9% | Thrombocytopenia leading to dose reduction/interruption (101 total patients): 4.0% | Adverse events leading to treatment discontinuation (101 total patients (six patients)): 5.9% | Anaemia, Grades ≥3 [1]: 24.8% | Anaemia, all Grades [1]: 35.6% | Diarrhoea, Grades ≥3 [1]: 2.0% | Diarrhoea, all Grades [1]: 32.7% | Fatigue, Grades ≥3 [1]: 3.0% | Fatigue, all Grades [1]: 48.5% | Increased alanine aminotransferase, Grades ≥3 [1]: 5.0% | Increased alanine aminotransferase, all Grades [1]: 11.9% | Nausea, Grades ≥3 [1]: 4.0% | Nausea, all Grades [1]: 69.3% | Neutropenia, Grades ≥3 [1]: 5.9% | Neutropenia, all Grades [1]: 9.9% | Vomiting, Grades ≥3 [1]: 1.0% | Vomiting, all Grades [1]: 31.7% | Treatment-related grade ≥3 AEs (120-mg BID dosage cohort): 60.0% | Treatment-related grade ≥3 AEs (160-mg QD dosage cohort): 63.6% | Patients with a grade ≥3 AE (BID dosage cohort, dose escalation (N=45)): 62.2% | Anaemia, AE [2]: 33.3% | Diarrhoea, AE [2]: 28.9% | Fatigue, AE [2]: 33.3% | Nausea, AE [2]: 64.4% | Vomiting, AE [2]: 35.6% | Treatment-related AEs leading to dose interruptions [3]: 31.1% | Treatment-related AEs leading to dose reductions [3]: 6.7% | Maximum tolerated dose (MTD) (BID dosing): 80 mg | Recommended Phase 2 dose (RP2D) (BID dosing): 60 mg | Abdominal pain, All Grades [4]: 17 (16.8) n (%) | Abdominal pain, Grade ≥3 [4]: 1 (1.0) n (%) | Anemia, All Grades [4]: 36 (35.6) n (%) | Anemia, Grade ≥3 [4]: 25 (24.8) n (%) | Constipation, All Grades [4]: 21 (20.8) n (%) | Constipation, Grade ≥3 [4]: 0 n (%) | Decreased appetite, All Grades [4]: 23 (22.8) n (%) | Decreased appetite, Grade ≥3 [4]: 0 n (%) | Diarrhea, All Grades [4]: 33 (32.7) n (%) | Diarrhea, Grade ≥3 [4]: 2 (2.0) n (%) | Fatigue, All Grades [4]: 49 (48.5) n (%) | Fatigue, Grade ≥3 [4]: 3 (3.0) n (%) | Headache, All Grades [4]: 12 (11.9) n (%) | Headache, Grade ≥3 [4]: 0 n (%) | Increased alanine aminotransferase, All Grades [4]: 12 (11.9) n (%) | Increased alanine aminotransferase, Grade ≥3 [4]: 5 (5.0) n (%) | Increased aspartate aminotransferase, All Grades [4]: 10 (9.9) n (%) | Increased aspartate aminotransferase, Grade ≥3 [4]: 3 (3.0) n (%) | Nausea, All Grades [4]: 70 (69.3) n (%) | Nausea, Grade ≥3 [4]: 4 (4.0) n (%) | Neutropenia, All Grades [4]: 10 (9.9) n (%) | Neutropenia, Grade ≥3 [4]: 6 (5.9) n (%) | Upper respiratory tract infection, All Grades [4]: 12 (11.9) n (%) | Upper respiratory tract infection, Grade ≥3 [4]: 0 n (%) | Urinary tract infection, All Grades [4]: 14 (13.9) n (%) | Urinary tract infection, Grade ≥3 [4]: 1 (1.0) n (%) | Vomiting, All Grades [4]: 32 (31.7) n (%) | Vomiting, Grade ≥3 [4]: 1 (1.0) n (%) | Patients with a grade ≥3 AE (QD dosage cohort, dose escalation (N=19)): 73.7% | Treatment-related AEs leading to dose interruptions (QD dosage group (N=19)): 57.9% | Treatment-related AEs leading to dose reductions (QD dosage group (N=19)): 5.3% | Diarrhea, AE (QD dosage group overall (N=19)): 47.4% | Fatigue, AE (QD dosage group overall (N=19)): 68.4% | Nausea, AE (QD dosage group overall (N=19)): 73.7% | Maximum tolerated dose (MTD) (QD dosing): 160 mg | Recommended Phase 2 dose (RP2D) (QD dosing): 120 mg | Abdominal pain, AE of any grade [5]: 9 (20.0) n (%) | Anaemia, AE of any grade [5]: 15 (33.3) n (%) | Ascites, AE of any grade [5]: 5 (11.1) n (%) | Back pain, AE of any grade [5]: 4 (8.9) n (%) | Constipation, AE of any grade [5]: 8 (17.8) n (%) | Cough, AE of any grade [5]: 4 (8.9) n (%) | Decreased appetite, AE of any grade [5]: 5 (11.1) n (%) | Diarrhoea, AE of any grade [5]: 13 (28.9) n (%) | Dose-limiting toxicity [5]: 4 (8.9) n (%) | Dyspnoea, AE of any grade [5]: 3 (6.7) n (%) | Fatigue, AE of any grade [5]: 15 (33.3) n (%) | Headache, AE of any grade [5]: 4 (8.9) n (%) | Hypoalbuminemia, AE of any grade [5]: 3 (6.7) n (%) | Hypomagnesemia, AE of any grade [5]: 4 (8.9) n (%) | Hypophosphatemia, AE of any grade [5]: 3 (6.7) n (%) | Increased AST, AE of any grade [5]: 3 (6.7) n (%) | Muscle spasms, AE of any grade [5]: 4 (8.9) n (%) | Nausea, AE of any grade [5]: 29 (64.4) n (%) | Neutropenia, AE of any grade [5]: 6 (13.3) n (%) | Non-cardiac chest pain, AE of any grade [5]: 3 (6.7) n (%) | Pain in extremity, AE of any grade [5]: 3 (6.7) n (%) | Peripheral sensory neuropathy, AE of any grade [5]: 3 (6.7) n (%) | Pleural effusion, AE of any grade [5]: 4 (8.9) n (%) | Pyrexia, AE of any grade [5]: 4 (8.9) n (%) | Treatment-emergent AE [5]: 45 (100.0) n (%) | Treatment-emergent AE: Grade 3 or higher [5]: 28 (62.2) n (%) | Treatment-emergent AE: Leading to death [5]: 4 (8.9) n (%) | Treatment-emergent AE: Leading to dose interruption [5]: 27 (60.0) n (%) | Treatment-emergent AE: Leading to dose modification [5]: 27 (60.0) n (%) | Treatment-emergent AE: Leading to dose reduction [5]: 3 (6.7) n (%) | Treatment-emergent AE: Leading to treatment discontinuation [5]: 3 (6.7) n (%) | Treatment-emergent AE: Serious [5]: 25 (55.6) n (%) | Treatment-related AE [5]: 35 (77.8) n (%) | Treatment-related AE: Grade 3 or higher [5]: 10 (22.2) n (%) | Treatment-related AE: Leading to death [5]: 0 (0.0) n (%) | Treatment-related AE: Leading to dose interruption [5]: 14 (31.1) n (%) | Treatment-related AE: Leading to dose modification [5]: 14 (31.1) n (%) | Treatment-related AE: Leading to dose reduction [5]: 3 (6.7) n (%) | Treatment-related AE: Leading to treatment discontinuation [5]: 2 (4.4) n (%) | Treatment-related AE: Serious [5]: 3 (6.7) n (%) | Upper respiratory tract infection, AE of any grade [5]: 8 (17.8) n (%) | Urinary tract infection, AE of any grade [5]: 8 (17.8) n (%) | Vomiting, AE of any grade [5]: 16 (35.6) n (%) | Dose-limiting toxicity [6]: 1 (5.3) n (%) | Treatment-emergent AE [6]: 19 (100.0) n (%) | Treatment-emergent AE: Grade 3 or higher [6]: 14 (73.7) n (%) | Treatment-emergent AE: Leading to death [6]: 0 (0.0) n (%) | Treatment-emergent AE: Leading to dose interruption [6]: 13 (68.4) n (%) | Treatment-emergent AE: Leading to dose modification [6]: 13 (68.4) n (%) | Treatment-emergent AE: Leading to dose reduction [6]: 1 (5.3) n (%) | Treatment-emergent AE: Leading to treatment discontinuation [6]: 2 (10.5) n (%) | Treatment-emergent AE: Serious [6]: 6 (31.6) n (%) | Treatment-related AE [6]: 17 (89.5) n (%) | Treatment-related AE: Grade 3 or higher [6]: 10 (52.6) n (%) | Treatment-related AE: Leading to death [6]: 0 (0.0) n (%) | Treatment-related AE: Leading to dose interruption [6]: 11 (57.9) n (%) | Treatment-related AE: Leading to dose modification [6]: 11 (57.9) n (%) | Treatment-related AE: Leading to dose reduction [6]: 1 (5.3) n (%) | Treatment-related AE: Leading to treatment discontinuation [6]: 2 (10.5) n (%) | Treatment-related AE: Serious [6]: 1 (5.3) n (%)
